Results published in PubChem BioAssay (NCI).
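Dose response: 5 concentrations. Exposure: 48 h. Format: 96-well plates. Endpoint: linear interpolation; highest concentration if not reached. At the TGI there is no net growth.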

What was measured:
Experiment in all cases: NCI tumour cell line growth inhibition, 48 h
[1] = tested on: MDA-N
[2] = tested on: OVCAR-4 ovarian
[3] = tested on: SK-MEL-28 melanoma
[4] = tested on: OVCAR-8 ovarian
[5] = tested on: UO-31 renal
[6] = tested on: SF-295 CNS
[7] = tested on: DU-145 prostate
[8] = tested on: M14 melanoma
[9] = tested on: 786-0 renal
[10] = tested on: SNB-19 CNS
[11] = tested on: PC-3 prostate
[12] = tested on: KM12 colon
[13] = tested on: NCI/ADR-RES ovarian
[14] = tested on: MOLT-4 leukemia
[15] = tested on: NCI-H460 lung
[16] = tested on: TK-10 renal
[17] = tested on: MDA-MB-435
[18] = tested on: SK-MEL-5 melanoma
[19] = tested on: K-562 leukemia
[20] = tested on: BT-549 breast
[21] = tested on: NCI-H522 lung
[22] = tested on: LOX IMVI melanoma
[23] = tested on: MDA-MB-231 breast
[24] = tested on: HOP-92 NSCLC
[25] = tested on: UACC-62 melanoma
[26] = tested on: HS 578T breast
[27] = tested on: NCI-H226 lung
[28] = tested on: A549 NSCLC
[29] = tested on: MALME-3M melanoma
[30] = tested on: SR leukemia
[31] = tested on: HCT-116 colon
[32] = tested on: HT29 colon
[33] = tested on: SK-OV-3 ovarian
[34] = tested on: OVCAR-3 ovarian
[35] = tested on: RPMI-8226 leukemia
[36] = tested on: COLO 205 colon
[37] = tested on: HCC-2998 colon
[38] = tested on: IGROV1 ovarian
[39] = tested on: HL-60(TB) leukemia
[40] = tested on: UACC-257 melanoma
[41] = tested on: ACHN renal
[42] = tested on: EKVX NSCLC
[43] = tested on: MCF7 breast
[44] = tested on: U251 CNS
[45] = tested on: HCT-15 colon
[46] = tested on: A498 renal
[47] = tested on: CCRF-CEM leukemia
[48] = tested on: OVCAR-5 ovarian
[49] = tested on: SW-620 colon
[50] = tested on: NCI-H23 lung
[51] = tested on: CAKI-1 renal
[52] = tested on: SK-MEL-2 melanoma
[53] = tested on: HOP-62 NSCLC
[54] = tested on: SF-539 CNS
[55] = tested on: T-47D breast
[56] = tested on: SF-268 CNS

Cc1c2n(c3ccccc13)S(=O)(=O)c1ccccc1-2
TGI [1]: > 100 µM
TGI [2]: > 100 µM
TGI [3]: > 100 µM
TGI [4]: 60.1 µM
TGI [5]: 41.6 µM
TGI [6]: 53.2 µM
TGI [7]: > 100 µM
TGI [8]: > 100 µM
TGI [9]: 22.7 µM
TGI [10]: 46.9 µM
TGI [11]: 61.3 µM
TGI [12]: > 100 µM
TGI [13]: > 100 µM
TGI [14]: > 100 µM
TGI [15]: > 100 µM
TGI [16]: 58.2 µM
TGI [17]: > 100 µM
TGI [18]: > 100 µM
TGI [19]: > 100 µM
TGI [20]: > 100 µM
TGI [21]: > 100 µM
TGI [22]: > 100 µM
TGI [23]: 39.4 µM
TGI [24]: 73.6 µM
TGI [25]: > 100 µM
TGI [26]: 54.8 µM
TGI [27]: > 100 µM
TGI [28]: > 100 µM
TGI [29]: > 100 µM
TGI [30]: > 100 µM
TGI [31]: > 100 µM
TGI [32]: 35.6 µM
TGI [33]: 31.6 µM
TGI [34]: > 100 µM
TGI [35]: > 100 µM
TGI [36]: > 100 µM
TGI [37]: > 100 µM
TGI [38]: > 100 µM
TGI [39]: > 100 µM
TGI [40]: > 100 µM
TGI [41]: 43 µM
TGI [42]: 35.6 µM
TGI [43]: > 100 µM
TGI [44]: 37.9 µM
TGI [45]: > 100 µM
TGI [46]: 27.4 µM
TGI [47]: > 100 µM
TGI [48]: > 100 µM
TGI [49]: > 100 µM
TGI [50]: > 100 µM
TGI [51]: 27.4 µM

c1cc(-c2ccc(-c3nc4ccc(C5=NCCN5)cc4s3)s2)ccc1C1=NCCN1
TGI [1]: 1 µM
TGI [2]: 0.5 µM
TGI [4]: 0.801 µM
TGI [5]: 2.61 µM
TGI [6]: 0.249 µM
TGI [7]: 0.677 µM
TGI [9]: 0.272 µM
TGI [10]: 9.38 µM
TGI [11]: 2.27 µM
TGI [12]: 1.67 µM
TGI [13]: > 100 µM
TGI [14]: 0.879 µM
TGI [52]: 2.96 µM
TGI [16]: 2.42 µM
TGI [19]: 4 µM
TGI [20]: 5.27 µM
TGI [23]: 1.49 µM
TGI [53]: 0.257 µM
TGI [24]: 1.08 µM
TGI [29]: 1.4 µM
TGI [54]: 0.319 µM
TGI [30]: 1.43 µM
TGI [31]: 1.35 µM
TGI [32]: 2.08 µM
TGI [34]: 5.25 µM
TGI [35]: 1.22 µM
TGI [37]: 0.162 µM
TGI [38]: 2.52 µM
TGI [55]: 1.42 µM
TGI [39]: 2.08 µM
TGI [40]: > 100 µM
TGI [41]: 1.28 µM
TGI [42]: 2.69 µM
TGI [43]: 0.255 µM
TGI [56]: 0.662 µM
TGI [44]: 0.821 µM
TGI [45]: 16.6 µM
TGI [47]: 0.574 µM
TGI [48]: 0.327 µM
TGI [49]: > 100 µM
TGI [50]: > 100 µM
TGI [51]: 4.71 µM
